According to patent US5731328A, “Methods of inhibiting plasminogen activator inhibitor 1” (Eli Lilly and Company, priority 1996, dated 1998):

Experiments:
[1] = system: Human umbilical vein endothelial cells (HUVEC); assay: Responsiveness of HUVEC lots to 17-beta estradiol; type: cell-based; conditions: several lots of cells from Clonetics, initial experiments
[2] = system: secretion of PAI-1 from human endothelial cells (HUVEC); assay: Endothelial cell PAI-1 assay: IL-1 induced PAI-1 secretion, Imubind Plasma PAI-1 ELISA; type: cell-based
Protocol: 96 well tissue culture plates were prepared with 5×10^4 human endothelial cells (HUVEC) per well in Clonetics' Endothelial Cell Growth Medium (EGM) supplemented with 2% FBS. Following incubation overnight at 37° C., the medium was replaced with serum-free medium (DMEM/F-12 medium, 20 mM-HEPES, pH 7.5, 50 μg/ml gentamicin, 1 μg/ml human transferrin and 1 μg/ml bovine insulin) with or without compound 1, (where R1 and R2 are hydroxy, and […] is pyrrolidino), and with or without 1 nM IL-1-beta. Following incubation overnight at 37° C., samples of culture medium were assayed for secreted PAI-1 using the Imubind Plasma PAI-1 ELISA (American Diagnostic Inc. #822/1S).
Human umbilical vein endothelial cells (HUVEC) were treated with compound 1 concurrent to the induction of PAI-1 with IL-1. […] Further the positive effect of compound 1 on reducing PAI-1 may provide for acute uses in conditions where elevated levels are associated with pathology.

estrogen receptor = conditions: cited from earlier work
PAI-1 = conditions: post-menopausal women, estrogen therapy; cited from earlier work

For `C[C@]12CC[C@@H]3c4ccc(O)cc4CC[C@H]3[C@@H]1CC[C@@H]2O` [17-beta estradiol], which “responsiveness of HUVEC lots (in words)” value [1] is on record?
Its value is “not all lots were responsive”.

With `O=C(c1ccc(OCCN2CCCC2)cc1)c1c(-c2ccc(O)cc2)sc2cc(O)ccc12` [Compound 1] as the molecule, how does the “induction of PAI-1 by IL-1 (in words)” value ([2]; 0.5 nM, estrogen-responsive line) read?
The value was “significantly reduced the induction of PAI-1 by IL-1”.

What about the inhibition at 0.005 µM ([2]; Homo sapiens, 5 × 10^-9 M, IL-1 induced secretion, different lot of estrogen-responsive HUVEC, read-out: PAI-1 Level (% inhibition)) of the same molecule?
The inhibition at 0.005 µM was 82 ± 17%.

And the inhibition at 0.0005 µM ([2]; Homo sapiens, 5 × 10^-10 M, IL-1 induced secretion, different lot of estrogen-responsive HUVEC, read-out: PAI-1 Level (% inhibition))?
The inhibition at 0.0005 µM was 65 ± 8%.

What about the inhibition at 50 pM ([2]; Homo sapiens, 5 × 10^-11 M, IL-1 induced secretion, different lot of estrogen-responsive HUVEC, read-out: PAI-1 Level (% inhibition)) of the same molecule?
Its inhibition at 50 pM is 48 ± 11%.

And the inhibition at 5 pM ([2]; Homo sapiens, 5 × 10^-12 M, IL-1 induced secretion, different lot of estrogen-responsive HUVEC, read-out: PAI-1 Level (% inhibition))?
The inhibition at 5 pM was 22 ± 4%.

What about the inhibition at 500 fM ([2]; Homo sapiens, 5 × 10^-13 M, IL-1 induced secretion, different lot of estrogen-responsive HUVEC, read-out: PAI-1 Level (% inhibition)) of the same molecule?
The inhibition at 500 fM was -1 ± 7%.

What about the inhibition at 50 fM ([2]; Homo sapiens, 5 × 10^-14 M, IL-1 induced secretion, different lot of estrogen-responsive HUVEC, read-out: PAI-1 Level (% inhibition)) of the same molecule?
Its inhibition at 50 fM is 0%.

What about the “PAI-1 Level (mean +/- SE, n = 4)” value ([2]; IL-1 & .5 nM compound 1, HUVEC, overnight at 37° C., serum-free medium, No IL-1 control 328 +/- 46, IL-1 alone 735 +/- 11) of the same molecule?
The value was 521 ± 52 ng/mL.

What about the “inhibition of IL-1 induced PAI-1 secretion, concentration dependence (in words)” value ([2]; different lot of estrogen-responsive cells) of the same molecule?
Its value is “inhibited IL-1 induced secretion in a concentration-dependent manner”.

What about the “inhibition of the induction of PAI-1 from activated endothelial cells (in words)” value ([2]; summary of Tables 1 and 2) of the same molecule?
The value was “very potent inhibitor”.

With `O=C(c1ccc(OCCN2CCCCC2)cc1)c1c(-c2ccc(O)cc2)sc2cc(O)ccc12` [Raloxifene] as the molecule, how does the “binding to the estrogen receptor (in words)” value (estrogen receptor) read?
Its value is “shown to bind to the estrogen receptor”.

Which “reduction of PAI-1 levels (in words)” value (PAI-1) does the source give for estrogen here?
Its value is “reduced to pre-menopausal levels”.
